In assay [1] the test system is SPR-c-kit2 (DNA, G4) GGGCGGGCGCGAGGGAGGGG
The assay is described as follows: SPR. The note with it: 100 mM K+ (KCl); 50 mM Tris-HCl, pH 7.2, 25 °C; Langmuir kinetic fit.

In assay [2] the test system is c-kit2 (DNA, G4) GGGCGGGCGCGAGGGAGGGG
The assay can be described thus: fluorescence titration. The note with it: 100 mM K+ (KCl); 10 mM Tris-HCl, pH 7.2; strong light-up of 15 at 525 nm.

The subject of assay [3] is HRAS (DNA, G4) TCGGGTTGCGGGCGCAGGGCACGGGCG
The assay can be described thus: fluorescence titration. The note with it: 100 mM K+ (KCl); 10 mM Tris-HCl, pH 7.2; much weaker light-up, up to 5 μM DNA.

Assay [4] concerns c-kit3 (DNA, G4) GGCGAGGAGGGGCGTGGCCGGC
The assay can be described thus: fluorescence titration. The note with it: 100 mM K+ (KCl); 10 mM Tris-HCl, pH 7.2; much weaker light-up, up to 5 μM DNA.

In assay [5] the test system is Pu22 (DNA, G4) TGAGGGTGGGTAGGGTGGGTAA
The assay is described as follows: fluorescence titration. Particulars: 100 mM K+ (KCl); 10 mM Tris-HCl, pH 7.2; strong light-up of 15 at 525 nm.

The test system of assay [6] is HRAS-Ap16 (DNA, G4, 2-aminopurine at 16) TCGGGTTGCGGGCGCAGGGCACGGGCG
The assay can be described thus: 2-aminopurine fluorescence titration. Particulars: 100 mM K+ (KCl); 10 mM Tris-HCl, pH 7.2; 1 μM DNA, 0-10 μM compound.

The test system of assay [7] is c-kit2-Ap4 (DNA, G4, 2-aminopurine at 4 (replaces C)) GGGCGGGCGCGAGGGAGGGG
The assay can be described thus: 2-aminopurine fluorescence titration. The note with it: 100 mM K+ (KCl); 10 mM Tris-HCl, pH 7.2; 1 μM DNA, 0-10 μM compound.

In assay [8] the test system is KRAS (DNA, G4) AGGGCGGTGTGGGAAGAGGGAAGAGGGGGAGG
The assay is described as follows: fluorescence titration. Particulars: 100 mM K+ (KCl); 10 mM Tris-HCl, pH 7.2; strong light-up of 15 at 525 nm.

Assay [9] concerns c-kit2-Ap12 (DNA, G4, 2-aminopurine at 12) GGGCGGGCGCGAGGGAGGGG
The assay can be described thus: 2-aminopurine fluorescence titration. The note with it: 100 mM K+ (KCl); 10 mM Tris-HCl, pH 7.2; 1 μM DNA, 0-10 μM compound.

In assay [10] the test system is c-kit2-Ap16 (DNA, G4, 2-aminopurine at 16) GGGCGGGCGCGAGGGAGGGG
The assay can be described thus: 2-aminopurine fluorescence titration. The note with it: 100 mM K+ (KCl); 10 mM Tris-HCl, pH 7.2; 1 μM DNA, 0-10 μM compound.

The test system of assay [11] is HRAS-Ap21 (DNA, G4, 2-aminopurine at 21) TCGGGTTGCGGGCGCAGGGCACGGGCG
The assay is described as follows: 2-aminopurine fluorescence titration. Particulars: 100 mM K+ (KCl); 10 mM Tris-HCl, pH 7.2; 1 μM DNA, 0-10 μM compound.

The test system of assay [12] is TBA (DNA, G4) GGTTGGTGTGGTTGG
The assay is described as follows: fluorescence titration. Particulars: 100 mM K+ (KCl); 10 mM Tris-HCl, pH 7.2; much weaker light-up, up to 5 μM DNA.

Assay [13] concerns HT-L2H (DNA, G4) TTGGGTTAGGGTTAGGGTTAGGGA
The assay is described as follows: fluorescence titration. Particulars: 100 mM K+ (KCl); 10 mM Tris-HCl, pH 7.2; much weaker light-up, up to 5 μM DNA.

The subject of assay [14] is bcl-2 (DNA, G4) GGGCGGGCGCGGGAGGAAGGGGGCGGG
The assay can be described thus: fluorescence titration. The note with it: 100 mM K+ (KCl); 10 mM Tris-HCl, pH 7.2; strong light-up of 15 at 525 nm.

For assay [15], the system named is htg22 (DNA, G4) AGGGTTAGGGTTAGGGTTAGGG
The assay can be described thus: fluorescence titration. Particulars: 100 mM K+ (KCl); 10 mM Tris-HCl, pH 7.2; much weaker light-up, up to 5 μM DNA.

In assay [16] the test system is HRAS-Ap7 (DNA, G4, 2-aminopurine at 7 (replaces T)) TCGGGTTGCGGGCGCAGGGCACGGGCG
The assay is described as follows: 2-aminopurine fluorescence titration. The note with it: 100 mM K+ (KCl); 10 mM Tris-HCl, pH 7.2; 1 μM DNA, 0-10 μM compound.

Take `C#CCOc1ccc(-c2[nH]c(-c3cc4ccc(N(CC)CC)cc4oc3=O)nc2-c2ccc(OCCCN(CC)CC)cc2)cc1`: the KD in [1] came out at 13.9 µM. This counts as double-digit micromolar.

Regarding `CCN(CC)CCCOc1ccc(-c2nc(-c3cc4ccc(N(CC)CC)cc4oc3=O)[nH]c2-c2ccc(OCc3cn(CCN4CCCCC4)nn3)cc2)cc1`, the KD in assay [1] was found to be 1.8 µM.

`CCN(CC)CCCOc1ccc(-c2nc(-c3cc4ccc(N(CC)CC)cc4oc3=O)[nH]c2-c2ccc(OCc3cn(CCCN(C)C)nn3)cc2)cc1` yielded a dissociation constant (KD) in assay [1] of 4.3 µM.

As to `CCN(CC)CCCOc1ccc(-c2nc(-c3cc4ccc(N(CC)CC)cc4oc3=O)[nH]c2-c2ccc(OCc3cn(CCC(=O)O)nn3)cc2)cc1`, the binding result is “yes” in assay [2]; “weak” in [3]; “weak” in assay [4]; “yes” in assay [5]; “weak” in [6]; “yes” in assay [7]. In addition, the binding entry is on record as “yes” in [8]; “yes” in [9]; “yes” in assay [10]; “weak” in assay [11]; “weak” in [12]; “weak” in assay [13]. Also, the binding result is given as “yes” in assay [14], “weak” in assay [15] and “weak” in assay [16]. The compound also returned a KD in assay [1] of 6.1 µM.

In turn, `CCN(CC)CCCOc1ccc(-c2nc(-c3cc4ccc(N(CC)CC)cc4oc3=O)[nH]c2-c2ccc(OCc3cn(CCN4CCOCC4)nn3)cc2)cc1` came in with a KD in assay [1] of 4.8 µM.

As to `CCN(CC)CCCOc1ccc(-c2nc(-c3cc4ccc(N(CC)CC)cc4oc3=O)[nH]c2-c2ccc(OCc3cn(CCCN4CCN(C)CC4)nn3)cc2)cc1`, the binding entry in assay [7], in assay [10], in assay [11] and in assay [16] was “yes” each time. This compound also showed a KD in [1] of 2.0 µM.

Consider `CCN(CC)CCCOc1ccc(-c2nc(-c3cc4ccc(N(CC)CC)cc4oc3=O)[nH]c2-c2ccc(OCc3cn(CCN(C)C)nn3)cc2)cc1`, for which, in assay [1], the dissociation constant KD was 2.7 µM. That is a single-digit micromolar value.

For the compound `CCN(CC)CCCOc1ccc(-c2nc(-c3cc4ccc(N(CC)CC)cc4oc3=O)[nH]c2-c2ccc(OCc3cn(CCCO)nn3)cc2)cc1`, the KD in [1] came out at 3.1 µM. This KD and that of the compound before are within 1.5-fold of each other.

The term KD denotes a measure of binding affinity in units of concentration. A lower KD goes with higher affinity.

These data come from paper PMC4658637 (2015).
